Reference: article PMC9297976 (Journal of Applied Toxicology, 2021)

Tests used:
medaka Esr1 (mEsr1) [1] = biological target: T1, medaka Esr1 (mEsr1) (Oryzias latipes, UniProt P50241); test: cell-based; parameters: species or system Japanese medaka (Oryzias latipes)
T1 sequence (P50241 1-620): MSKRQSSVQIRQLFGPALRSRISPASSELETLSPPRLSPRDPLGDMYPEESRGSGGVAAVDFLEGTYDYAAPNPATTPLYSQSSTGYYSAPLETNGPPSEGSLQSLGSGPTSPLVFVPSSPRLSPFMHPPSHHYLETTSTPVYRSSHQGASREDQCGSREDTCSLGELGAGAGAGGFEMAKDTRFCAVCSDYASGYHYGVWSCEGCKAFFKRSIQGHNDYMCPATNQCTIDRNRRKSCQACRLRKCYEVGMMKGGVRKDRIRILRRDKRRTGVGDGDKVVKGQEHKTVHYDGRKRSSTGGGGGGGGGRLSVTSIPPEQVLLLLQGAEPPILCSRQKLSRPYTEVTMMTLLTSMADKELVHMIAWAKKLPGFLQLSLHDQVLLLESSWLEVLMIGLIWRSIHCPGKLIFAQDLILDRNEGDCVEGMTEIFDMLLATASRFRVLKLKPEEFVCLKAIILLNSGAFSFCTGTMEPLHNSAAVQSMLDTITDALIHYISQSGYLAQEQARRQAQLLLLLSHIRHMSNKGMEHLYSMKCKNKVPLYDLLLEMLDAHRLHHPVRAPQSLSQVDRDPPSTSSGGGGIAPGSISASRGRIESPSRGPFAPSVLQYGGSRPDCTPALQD

medaka Esr1 (mEsr1) [2] = biological target: T1, medaka Esr1 (mEsr1); test: Medaka Esr1 reporter gene assay, antagonist assay; format: cell-based, Japanese medaka (Oryzias latipes); settings: E2 spiked at 1.0 nM (B); MAC = 1.0 × 10^−5 M
medaka ARβ (mArβ) [3] = biological target: T2, medaka ARβ (mArβ) (Oryzias latipes, UniProt D1MV73); test: Medaka ARβ reporter gene assay, agonist assay; format: cell-based, Japanese medaka (Oryzias latipes); settings: MAC = 1.0 × 10^−5 M
T2 sequence (D1MV73 1-744): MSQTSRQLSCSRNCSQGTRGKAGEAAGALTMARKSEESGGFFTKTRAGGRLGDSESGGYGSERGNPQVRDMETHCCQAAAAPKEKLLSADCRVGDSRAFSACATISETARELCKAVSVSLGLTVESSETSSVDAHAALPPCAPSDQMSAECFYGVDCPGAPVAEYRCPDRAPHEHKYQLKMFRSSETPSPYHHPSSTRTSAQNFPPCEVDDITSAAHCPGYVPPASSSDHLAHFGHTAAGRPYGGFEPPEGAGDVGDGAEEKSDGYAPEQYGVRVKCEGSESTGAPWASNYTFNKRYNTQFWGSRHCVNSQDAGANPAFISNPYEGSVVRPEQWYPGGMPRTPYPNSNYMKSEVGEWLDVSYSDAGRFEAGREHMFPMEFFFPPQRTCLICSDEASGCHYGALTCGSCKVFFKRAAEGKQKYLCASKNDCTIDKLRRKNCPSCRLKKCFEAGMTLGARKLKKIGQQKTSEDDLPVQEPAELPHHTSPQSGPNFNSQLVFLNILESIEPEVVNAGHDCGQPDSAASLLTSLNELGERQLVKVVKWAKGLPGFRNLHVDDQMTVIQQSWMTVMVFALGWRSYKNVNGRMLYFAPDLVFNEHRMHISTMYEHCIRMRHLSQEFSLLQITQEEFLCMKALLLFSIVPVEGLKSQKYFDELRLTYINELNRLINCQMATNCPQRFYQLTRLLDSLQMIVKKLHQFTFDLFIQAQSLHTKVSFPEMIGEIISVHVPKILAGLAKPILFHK

medaka ARβ (mArβ) [4] = biological target: T2, medaka ARβ (mArβ); test: Medaka ARβ reporter gene assay, antagonist assay; format: cell-based, Japanese medaka (Oryzias latipes); settings: 11‐KT spiked at 50 nM (D); MAC = 1.0 × 10^−5 M
[5] = ref Brooke et al., 2009; Saeger et al., 1979; cited from earlier work
[6] = test system: Japanese medaka (Oryzias latipes); test: Fish Short‐Term Reproduction Assay; format: in vivo; settings: for GSI Female / GSI Male / HSI Female / HSI Male / Length Female / Length Male / Weight Female / Weight Male: completion of exposure
[7] = 44.9 μg/L measured, 21 d, sig. ↓ vs control
[8] = measured concentration 2.13 μg/L
[9] = measured concentration 7.19 μg/L
[10] = measured concentration 17.1 μg/L
[11] = measured concentration 44.9 μg/L

O=P(Oc1ccccc1)(Oc1ccccc1)Oc1ccccc1 [TPP, Triphenyl phosphate]
EC50 (medaka Esr1 (mEsr1) [1]): 9.7 µM
In vitro positive: Esr (medaka Esr1 (mEsr1) [1]; mode of action in which EC50 or PC10 was obtained in RGA): Esr
Antagonistic activity (medaka Esr1 (mEsr1) [2]): NE (MAC = 1.0 × 10^−5 M)^(B)
Agonistic activity (medaka ARβ (mArβ) [3]): NE (MAC = 1.0 × 10^−5 M)
Antagonistic activity (medaka ARβ (mArβ) [4]): NE (MAC = 1.0 × 10^−5 M)^(D)
Water solubility [5]: 1 to 1.9 µg/mL
Fertility rate ([6]; 2.13 μg/L measured, 21 d): 89 ± 4.9%
Hepatic VTG, female ([6]; 2.13 μg/L measured, 21 d): 542 ± 115 ng/mg‐liver
Hepatic VTG, male ([6]; 2.13 μg/L measured, 21 d): 6.9 ± 4.0 ng/mg‐liver
Mortality ([6]; 2.13 μg/L measured, 21 d): 0.0%
Mortality, number of dead fish ([6]; 2.13 μg/L measured, 21 d): 0
Number of fertilized eggs (per female per day) ([6]; 2.13 μg/L measured, 21 d): 18 ± 3.1
Number of total eggs (per female per day) ([6]; 2.13 μg/L measured, 21 d): 20 ± 2.7
SSC female (joint plates with papillary processes) ([6]; 2.13 μg/L measured, 21 d): 0 ± 0
SSC male (joint plates with papillary processes) ([6]; 2.13 μg/L measured, 21 d): 83 ± 7.4
Fertility rate ([6]; 7.19 μg/L measured, 21 d): 91 ± 3.8%
Hepatic VTG, male ([6]; 7.19 μg/L measured, 21 d): 8.4 ± 9.0 ng/mg‐liver
Mortality ([6]; 7.19 μg/L measured, 21 d): 0.0%
Mortality, number of dead fish ([6]; 7.19 μg/L measured, 21 d): 0
Number of fertilized eggs (per female per day) ([6]; 7.19 μg/L measured, 21 d): 17 ± 3.4
Number of total eggs (per female per day) ([6]; 7.19 μg/L measured, 21 d): 19 ± 3.1
SSC female (joint plates with papillary processes) ([6]; 7.19 μg/L measured, 21 d): 0 ± 0
SSC male (joint plates with papillary processes) ([6]; 7.19 μg/L measured, 21 d): 84 ± 6.9
Hepatic VTG, female ([6]; 7.19 μg/L measured, 21 d, sig. ↓ vs control): 360 ± 60 ng/mg‐liver
Fertility rate ([6]; 17.1 μg/L measured, 21 d): 93 ± 2.2%
Hepatic VTG, male ([6]; 17.1 μg/L measured, 21 d): 11 ± 9.4 ng/mg‐liver
Mortality ([6]; 17.1 μg/L measured, 21 d): 0.0%
Mortality, number of dead fish ([6]; 17.1 μg/L measured, 21 d): 0
Number of fertilized eggs (per female per day) ([6]; 17.1 μg/L measured, 21 d): 19 ± 1.8
Number of total eggs (per female per day) ([6]; 17.1 μg/L measured, 21 d): 20 ± 2.0
SSC female (joint plates with papillary processes) ([6]; 17.1 μg/L measured, 21 d): 0 ± 0
SSC male (joint plates with papillary processes) ([6]; 17.1 μg/L measured, 21 d): 83 ± 7.2
Hepatic VTG, female ([6]; 17.1 μg/L measured, 21 d, sig. ↓ vs control): 420 ± 77 ng/mg‐liver
Fertility rate ([6]; 44.9 μg/L measured, 21 d): 91 ± 3.9%
Hepatic VTG, male ([6]; 44.9 μg/L measured, 21 d): 8.8 ± 8.1 ng/mg‐liver
Mortality ([6]; 44.9 μg/L measured, 21 d): 4.2%
Mortality, number of dead fish ([6]; 44.9 μg/L measured, 21 d): 1
SSC female (joint plates with papillary processes) ([6]; 44.9 μg/L measured, 21 d): 0 ± 0
SSC male (joint plates with papillary processes) ([6]; 44.9 μg/L measured, 21 d): 90 ± 8.0
Hepatic VTG, female [6, 7]: 417 ± 70 ng/mg‐liver
Number of fertilized eggs (per female per day) [6, 7]: 15 ± 3.5
Number of total eggs (per female per day) [6, 7]: 16 ± 3.2
Fecundity, number of total eggs (in words) ([6]; 21 d): statistically significant decrease
LOECmVTG ([6]; LOEC on VTG induction in males): ND (>44.9) μg/L
LOECREPRO ([6]; LOEC on reproduction (fecundity and/or fertility)): 44.9 µg/L
Fertility rate (in words) ([6]; chemicals with significant decrease of number of total eggs): no significant effect
LOECREPRO (reduction in fecundity or fertility) ([6]; concentrations without overt toxicity): 44.9 µg/L
LOECTOX ([6]; lowest observed effect concentration on mortality): ND (>44.9) μg/L
GSI Female [6, 8]: 7.9 ± 0.5%
GSI Male [6, 8]: 0.87 ± 0.17%
HSI Female [6, 8]: 3.5 ± 0.39%
HSI Male [6, 8]: 1.4 ± 0.12%
Length Female [6, 8]: 35.3 ± 0.7 mm
Length Male [6, 8]: 37.9 ± 1.1 mm
Weight Female [6, 8]: 449 ± 19 mg
Weight Male [6, 8]: 532 ± 44 mg
GSI Female [6, 9]: 8.1 ± 0.6%
GSI Male [6, 9]: 0.95 ± 0.09%
HSI Female [6, 9]: 3.1 ± 0.21%
HSI Male [6, 9]: 1.7 ± 0.29%
Length Female [6, 9]: 35.5 ± 0.3 mm
Length Male [6, 9]: 38.0 ± 1.1 mm
Weight Female [6, 9]: 464 ± 27 mg
Weight Male [6, 9]: 544 ± 49 mg
GSI Female [6, 10]: 7.7 ± 0.7%
GSI Male [6, 10]: 0.94 ± 0.10%
HSI Female [6, 10]: 3.6 ± 0.46%
HSI Male [6, 10]: 1.7 ± 0.24%
Length Female [6, 10]: 35.2 ± 1.0 mm
Length Male [6, 10]: 37.7 ± 1.0 mm
Weight Female [6, 10]: 468 ± 34 mg
Weight Male [6, 10]: 539 ± 31 mg
GSI Female [6, 11]: 9.4 ± 1.3%
GSI Male [6, 11]: 0.80 ± 0.07%
HSI Female [6, 11]: 3.6 ± 0.60%
HSI Male [6, 11]: 1.7 ± 0.13%
Length Female [6, 11]: 34.4 ± 0.4 mm
Length Male [6, 11]: 38.3 ± 1.1 mm
Weight Female [6, 11]: 432 ± 32 mg
Weight Male [6, 11]: 583 ± 68 mg
